In patent publication US6620424B1, “Process for producing glycolytic metabolism regulators” (Suntory Limited, priority 1998, dated 2003):

Columns and labels:
[1] = animal studies and clinical trials; cited from earlier work
[2] = tested on: streptozotocin-induced diabetes rats (male Wistar rats); assay: Evaluation of suppressive effect on blood glucose elevation in streptozotocin-induced diabetes rats; type: in vivo, rat
Description: Streptozotocin is an antibiotic derived from Streptomyces achromogenes, one of […]. Its action of inducing insulin-dependent diabetes mellitus was reported for the first time in 1963 by Rakieten et al. (Rakieten N, Rakieten M L, Nadkarni M V, Cancer Chemother Rep 29:91-98, 1963). Since then, it has been used most commonly as a substance for inducing diabetes experimentally. The main mechanism of its diabetogenic action is ascribed to the destruction of P cells of the pancreas, thereby suppressing insulin secretion. In male Wistar rats (7-week-old), a solution of streptozotocin in 0.05 M citric acid-0.145 […] NaCl (pH 4.5) was administered into the caudal vein (50 mg/kg). The animals were individually reared, commencing immediately after administration of streptozotocin. After a lapse of 48 hours, the animals with blood glucose levels of 300 mg/dl or more were divided into a control group and an itaconic acid group (7 or 8 animals per group), and study was initiated. A rearing feed was given to the control group, and a rearing feed containing 1.38% of itaconic acid was given to the itaconic acid group, ad. lib. together with drinking water, and the animals were reared for 3 weeks.
During the 3-week rearing period, blood glucose, body weight, feed intake, and water intake were measured twice or 3 times weekly. Rats are nocturnal animals, and feeding mostly takes place at night. However, since their blood glucose fluctuates greatly depending on the elapsed time after eating, each measurement of blood glucose was made between 9:30 and 10:00 in the morning. Blood hemoglobin Alc was measured on the day after administration of streptozotocin and on the 19th day after start of the study. Hemoglobin Alc is hemoglobin having glucose attached thereto non-enzymatically, and is expressed as a percentage (%) of total hemoglobin. In humans, hemoglobin Alc is known to serve as an indicator of the mean value of blood glucose during the period from 1 to 3 months previously until blood sampling. In rats, the life of an erythrocyte is about half of that in humans, and hemoglobin Alc has been reported to reflect the mean value of blood glucose since 2 to 3 weeks previously.
The experiments were conducted in groups of 7 or 8 rats each, and the results were indicated as mean values±standard deviations. The blood glucose was expressed as changes in individual animals compared with the value found at the start of the study (grouping). The test for a significant difference was performed by the analysis of variance of data, followed by Student t-test. The level of significance was set at 0.05.

[3] = tested on: Male SD rats; assay: Evaluation of the suppressive effect on blood glucose elevation in rats (glucose challenge); type: in vivo, rat
Method: Male SD rats (weighing 300 to 400 g), operated on for blood sampling cannulation into the femoral artery, were used. After an overnight fast, itaconic acid (500 mg/kg) was orally administered. Thirty minutes later, glucose (4 g/kg) was ingested, and changes in blood glucose were observed. In the control group, purified water, free of itaconic acid, was orally administered in the same volume. Experiments were conducted in groups of 4 rats each, and the results were indicated as mean values±standard deviations. The test for a significant difference was performed by the analysis of variance of data, followed by Student t-test. Differences were taken as significant when p values were less than 0.05 (*p<0.05, **p<0.01).

[4] = tested on: Male SD rats; assay: Evaluation of preventive effect on obesity in rats (3 weeks, itaconic acid in drinking water); type: in vivo, rat
Method: Male SD rats (8-week-old) were individually reared, commencing immediately after arrival. After a week of acclimatization, the animals were divided into a control group and an itaconic acid group (8 animals per group), and reared for 3 weeks, with feed and drinking water of the itaconic acid concentration shown in [Table 1] being given ad lib.
During the 3-week rearing period, the body weight, the feed intake, and the water intake were measured daily or every other day. On the final day, the animal was placed on a 17-hour fast, the blood was sampled, and the plasma was analyzed for blood glucose, hepatic function, and lipid-related parameters. Furthermore, the weight of the livers, kidneys, fat around the kidneys, and fat around the intestines was measured. The experiments were conducted in groups of 8 rats each, and the results were indicated as mean values±standard deviations. The test for a significant difference was performed by the analysis of variance of data, followed by Student t-test. The level of significance was set at 0.05.
The plasma collected at completion of the experiments was measured for various biological parameters. […] The experiments were conducted in groups of 8 rats each, and the results were indicated as mean values±standard deviations. The test for a significant difference was performed by the analysis of variance of data, followed by Student t-test. The level of significance was set at 0.05.

[5] = target: T1, rat liver type F6P2kinase (Rattus norvegicus, UniProt P07953); assay: Inhibition by itaconic acid of F6P2kinase activity catalyzing synthesis of F26BP; type: biochemical; conditions: 0.5 mM itaconic acid; 0.4 mM F6P, 2 mM ATP, 30° C.; read-out: inhibitory activity on F6P2kinase
T1 construct: made in house; host or cells: Escherichia coli
T1 sequence (P07953 whole entry): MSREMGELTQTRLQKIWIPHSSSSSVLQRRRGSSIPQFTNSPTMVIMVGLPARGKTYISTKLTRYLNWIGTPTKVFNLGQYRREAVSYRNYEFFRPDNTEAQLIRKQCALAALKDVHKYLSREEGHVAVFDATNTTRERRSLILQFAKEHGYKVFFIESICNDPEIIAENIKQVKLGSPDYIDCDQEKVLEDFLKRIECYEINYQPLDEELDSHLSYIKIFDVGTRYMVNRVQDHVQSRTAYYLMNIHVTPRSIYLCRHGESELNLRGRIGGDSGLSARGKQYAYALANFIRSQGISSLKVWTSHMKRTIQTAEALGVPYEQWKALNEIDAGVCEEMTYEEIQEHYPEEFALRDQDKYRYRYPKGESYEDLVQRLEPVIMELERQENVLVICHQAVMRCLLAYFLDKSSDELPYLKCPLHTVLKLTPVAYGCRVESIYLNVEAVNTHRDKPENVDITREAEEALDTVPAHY
Method: The gene for rat liver type F6P2kinase was incorporated into Escherichia coli and expressed. From the E. coli cells, rat liver type F6P2kinase was purified (K. Kitamura et al., J. Biol. Chem., Vol. 264, 9799-9806, 1989). The rat liver type F6P2kinase (1.25 μg) was reacted at 30° C. in a reaction solution containing 100 mM Tris-HCl (pH 7.5), 0.1 mM EDTA, 10 mM MgCl2, 2 mM ATP, 0.4 mM F6P, and 0 to 1.5 mM itaconic acid. After lapses of 2, 4 and 6 minutes, 10 μl of the reaction mixture was transferred into a test tube containing 90 μl of 50 mM NaOH, and heated for 1 minute at 90° C. to terminate the reaction. The amount of the resulting F26BP was measured by a change in absorbance due to oxidation of NADH upon subsequent addition of glycolytic pathway enzymes. That is, 10 μl of the reaction mixture after termination of the reaction was added to 1 ml of a reaction solution containing 50 mM HEPES (pH 7.3), 0.2 mM EDTA, 5 mM MgCl2, 1 mM F6P, 1 mM PPi, 15 mU PPi-F6P phosphotransferase, 0.15 mM NADH, 1 U aldolase, 1 U glycerol-3-phosphate dehydrogenase, and 10 U triose-phosphate isomerase. The amount of F26BP was measured by a decrease in the absorbance at 340 nm (Van Schaftingen et al., Eur. J. Biochem., Vol. 129, 191-195, 1982). The activity that converts the substrate F6P to 1 μmole F26BP over 1 minute at 30° C. is defined as 1 U. The results are shown in FIG. 1.

[6] = at completion of 3 weeks, FIG. 5
[7] = at completion of 3 weeks, p<0.05, FIG. 5
[8] = plasma after 3 weeks, 17-hour fast, mean ± SD, n=8
[9] = plasma after 3 weeks, 17-hour fast, mean ± SD, n=8, P < 0.05 vs control

For `OCC(CO)N[C@H]1C[C@](O)(CO)[C@@H](O)[C@H](O)[C@H]1O` [voglibose], the “rapid increases (peaks) in postprandial blood glucose” value [1] is given as “suppressing rapid increases (peaks) in postprandial blood glucose”.
With `C=C(CC(=O)O)C(=O)O` [itaconic acid] the “rise in blood hemoglobin Alc” value ([2]; Day 19, compared with the control group, FIG. 11) was “significant curbing of the rise”, the body weight ([2]; feed containing 1.38% itaconic acid, 3 weeks, FIG. 8) was “not different between the groups” and the “rise in blood glucose (change from start of study)” value ([2]; feed containing 1.38% itaconic acid, 3 weeks, from Day 1 onwards, p<0.05 on Days 5 and 15, FIG. 7) was “suppression of the rise in blood glucose was observed”. The feed intake ([2]; from about Day 5 onwards, compared with the control group, FIG. 9) was “decreases in feed intake were observed”, the “initial rapid increase in blood glucose after glucose challenge” value ([3]; itaconic acid 500 mg/kg orally 30 min before glucose 4 g/kg, 30 minutes after challenge, FIG. 6) was “significantly curbed” and the “blood glucose late after glucose challenge” value ([3]; itaconic acid 500 mg/kg orally, after 180 minutes and 240 minutes, versus control group) was “significantly high”. The feed intake ([4]; 3-week period, compared with the control group, FIG. 3) was “decreases in the feed intake were observed”, the “weight of the kidneys per 100 g of body weight” value [4, 6] was “not different between the groups” and the “weight of the livers per 100 g of body weight” value [4, 6] was “not different between the groups”. The “weight of fat around the intestines per 100 g of body weight” value [4, 7] was “significantly decreased”, the “weight of fat around the kidneys per 100 g of body weight” value [4, 7] was “significantly decreased” and the weight gain ([4]; from Day 9 onwards, p<0.05 against the control group, FIG. 2) was “significant suppression of weight gain”. It also gave an ALP [4, 8] of 0.3 ± 0.1 IU/l, a Free cholesterol [4, 8] of 12.2 ± 2.0 mg/dL and a GOT [4, 8] of 65.0 ± 12.0 IU/l. The GPT [4, 8] was 13.0 ± 2.5 IU/l, the LDH [4, 8] was 276 ± 82 IU/l and the Total bilirubin [4, 8] was 0.19 ± 0.02 mg/dL. The Total cholesterol [4, 8] was 46.3 ± 7.1 mg/dL, the Triglycerides ([4]; plasma after 3 weeks, 17-hour fast, mean ± SD, n=8, P < 0.01 vs control) was 20.9 ± 2.8 mg/dL and the Blood glucose [4, 9] was 149 ± 19 mg/dL. For the same compound, the Free fatty acids [4, 9] was 199 ± 75 mg/dL and the inhibition at 500 µM [5] was about 30%.
